Data taken from US5023358A, “Vanadyl organo-mineral compound, method for obtaining such a compound, pharmaceutical composition containing this organo-mineral compound” (Panmedica S.A., priority 1987, dated 1991).

Columns and labels:
[1] = tested on: Na^+ /K^+ ATP ase enzyme; details: absorption mechanisms; cited from earlier work
[2] = tested on: insulin receptor; details: intra-cellular, vanadyl (V^4+) form; cited from earlier work
[3] = tested on: diabetic rats; details: oral, cited from earlier work
[4] = tested on: diabetic rats; experiment: Glycemia of diabetic (streptozotocin) and non-diabetic rats after a unique oral administration; format: in vivo, rat
Source text: Then, the anti-diabetic activity of the above described complex of vanadyl and cystein has been examined.
The examination has been performed also starting from the compound with the formula (II). The activity of this compound has been compared on diabetic rats and on non-diabetic rats, and the activity of this compound (II) has be compared with that of the vanadyl sulfate.
Tests have been carried out on animals having a glycemia higher than 3 g/l.
The method is as follows. Diabetes is induced by intraveinous injection of a unique dose of streptozotocin of about 50 mg/kg, on male or female rats of the WISTAR strain with a mean weight of 200 g. The glycemia is measured 4 days after the injection.
The procedure of the pharmacological tests is as follows. A quantity of 45 mg/kg of compound (II) is administered by forcible feeding (doses of 10 ml/kg) to animals which have been fed, in the form of a suspension in a 3% solution of gum arabic. A dose of vanadyl sulfate equimolar to 45 mg/kg of compound (II) is administered.
The glycemia is measured by quantitative analysis. Blood is sampled from the tail of the animal. The glycemia is measured by means of a device named "AMES glucometer" (trade-mark). The rate of glycemia is read on "Derotrostix" dipsticks (trade-mark) of the aforesaid device.

[5] = tested on: male rats of the WISTAR strain; format: in vivo; details: oral, rat
Source text: First, the potential toxicity of the complex has been investigated.
The investigation has been carried out starting from the bimolecular vanadyl compound having one free amin group, of the general formula (II). After a unique oral administration to the rat, the measured toxicity of the compound of formula (II) on the one hand and of the vanadyl sulfate on the other hand have been compared.
The procedure of the toxicological tests is as follows.
On the one hand, the toxicity of the compound (II) is examined by administering orally increasing doses of compound (II), up to 1 g/kg, to a group of 10 male rats of the WISTAR strain with a mean weight of 150 g. A quantity of 10 ml/kg of a suspension of compound (II) in 3% gum arabic is administered, by forcible feeding, to animals which have not been fed. Then, the animals are examined for 14 days, in order to count for the deaths and to search and observe the signs of toxicity.
On the other hand, the acute toxicity of the vanadyl sulfate (VOSO4) is contemplated under similar conditions on animals divided into 7 groups of 10 animals to which the following doses have been administered: 300, 400, 500, 600, 800, 1000 and 1500 mg/kg.
The lethal dose (LD50) has been calculated by the method of […] AND WILCOXON.

[6] = tested on: diabetic rats; details: cited from earlier work
[7] = 45 mg/kg compound (II) or equimolar vanadyl sulfate

[O]=[V]([O-])([O-])[O-] [vanadate]
effect on Na+/K+ ATPase [1]: inhibiting the Na^+ /K^+ ATP ase enzyme

[O]=[V+2] [vanadyl (V^4+)]
effect on phosphorylation of the insulin receptor [2]: facilitating or inducing the phosphorylation of the insulin receptor

O=S(=O)([O-])[O-].[O]=[V+2] [vanadyl sulfate]
acute toxicity ([3]; diabetic rats): presents an acute toxicity | anti-diabetic effect in diabetic rats [3]: has an anti-diabetic effect | duration of the drop of glycemia [4, 7]: ≤ 2 h | effect on glycemia [4, 7]: weaker and transitory decrease of the glycemia | maximal decrease of glycemia ([4]; vanadyl sulfate equimolar to 45 mg/kg of compound (II)): about 1 g/l | signs of toxicity at the higher doses ([5]; 800, 1000 and 1500 mg/kg): an hypothermia and cases of chromodacryorrhoea | dose of first signs of toxicity ([5]; unique administration): 400 mg/kg | LD50 ([5]; unique administration, 20160 min): 600 mg/kg | signs of toxicity ([5]; unique administration, general and from 400 mg/kg): diarrhoea with a variable seriousness, a decrease of the motor activity and a loss of flesh

sodium vanadate
effect on cardiac function impairment associated to diabetes ([6]; in drink water, diabetic rats): the impairing of the cardiac function associated to diabetes is prevented | effect on glycemia of diabetic rats ([6]; in drink water, diabetic rats): the glycemia of the rats is normalized | anti-diabetic effect, taken orally ([6]; oral): has an anti-diabetic effect
